Assay results published in patent US20040023922A1, “Lipids for modulating immune response” (priority 2000, published 2004).
Several values for one entry are separate records, joined by “and”; a condition that tells them apart may be missing. Equal values may be shown once.

Tested on: Female Balb/c mice
Experiment: Adjuvanticity of lipids: serum anti-KLH IgA, IgG, IgM ELISA (Example 7)
Format: in vivo
Conditions: for Day 7 Results IgA, score as multiples of the control response / Day 7 Results IgG, score as multiples of the control response / Day 7 Results IgM, score as multiples of the control response: serum day 7 after booster; for Day 7 Results IgA, score as multiples of the control response: 5 μl lipid + 45 μl saline + 50 μl KLH (2 mg/ml), week 0 and week 2; for Day 7 Results IgA, score as multiples of the control response / Day 7 Results IgG, score as multiples of the control response / Day 7 Results IgM, score as multiples of the control response / Day 21 Results IgA, score as multiples of the control response / Day 21 Results IgG, score as multiples of the control response / Day 21 Results IgM, score as multiples of the control response: control KLH + Saline = 1; for Day 21 Results IgA, score as multiples of the control response / Day 21 Results IgG, score as multiples of the control response / Day 21 Results IgM, score as multiples of the control response: serum day 21 after booster; for Ranking Total: sum of the six IgA, IgG, IgM scores of day 7 and day 21, control KLH + Saline = 6
Method: The objective of this study was to investigate the adjuvanticity of 19 different lipids.
Female Balb/c mice, 6-8 weeks and weighing about 20-22 gms were used and maintained on a normal mouse diet throughout the study.
There were 22 groups of mice marked alphabetically from A-V. Group A (8 mice) was the negative control (KLH+Saline), Group B (8 mice) was the positive control (KLH+IFA). Groups C-V were the experimental groups containing 6 mice each. 100 μl of antigen preparation comprising of 5 μl lipid+45 μl saline+50 μl (2 mg/ml KLH) was administered to 20 groups of 6 mice each, on week 0 followed by a boost on week 2.
On day 7 and day 21 after the booster dose, the mice were tail bled, the serum separated, aliquoted and stored at 4° C.
The specific anti-KLH IgG and IgM antibody content of each individual serum sample was determined in an established ELISA assay and standardised against a positive control antiserum obtained by hyperimmunisation of mice with KLH (100 μg) in Freund's incomplete adjuvant. Plates were coated with KLH at 2 μg/ml and incubated with four twofold dilutions of samples (100 μl) at 37° C. for 2 hours. The initial dilution of serum samples was 1:50 for IgA assay and 1:100 for IgG and IgM assays. […] IgA and IgM were used at 1:1000 and IgG at 1:2000 for 2 hours at 37° C. The results were expressed as antibody units calculated from the standard curve obtained from pooled immune mouse serum given an arbitrary antibody value of 100,000 IgA units/ml and 1×10^6 IgG and IgM units/ml. The standard curve was diluted from 1:100 to 1:3200 for IgA, 1:4000 to 1:256,000 for IgG and 1:1000 to 1:32000 for IgM samples. The value for each sample dilution falling on standard curve was calculated and the mean taken as the value for the sample.
Results are given in the form of histograms (FIGS. 9 to 14), plotting the Ig response (units/ml) against the trial grouping. […] The number signifies multiples of the control response.

SMILES | Day 7 Results IgA, score as multiples of the control response | Day 7 Results IgG, score as multiples of the control response | Day 7 Results IgM, score as multiples of the control response | Day 21 Results IgA, score as multiples of the control response | Day 21 Results IgG, score as multiples of the control response | Day 21 Results IgM, score as multiples of the control response | Ranking Total
CCCCCCCCCCCCCCCC(=O)OCC(COC(=O)CCCCCCCCCCCCC)OC(=O)CCCCCCCCCCCCCCC (racemic) [DPM, 1,2 Diplamitoyl-3-myristoyl-rac-glycerol] | 16 | 3 | 1 | 2 | 7 | 2 | 31
CCCCCCCCCCCCCCCCCC(=O)OCC(COC(=O)CCCCCCCCCCCCC)OC(=O)CCCCCCCCCCCCCCCCC (racemic) [DSM, 1,2 Distearloyl-3-myristoyl-rac-glycerol] | 26 | 4 | 4 | 3 | 5 | 3 | 45
CCCCCCCCCCCCCCCCCC(=O)OCC(COC(=O)CCCCCCCCCCCCCCC)OC(=O)CCCCCCCCCCCCCCCCC (racemic) [DSP, 1,2 Distearoyl-3-palmitoyl-rac-glycerol] | 15 | 7 | 5 | 3 | 8 | 2 | 39 and 40
CCCCCCCCCCCCCC(=O)OCC(COP(=O)([O-])OCC[N+](C)(C)C)OC(=O)CCCCCCCCCCCCC (racemic) [PCM, DL-α-Phosphatidylcholine, dimyristoyl] | 4 | 2 | 1 | 1 | 3 | 1 | 12
CCCCCCCCCCCCCCCCCC(=O)OCC(COP(=O)([O-])OCC[N+](C)(C)C)OC(=O)CCCCCCCCCCCCCCCCC (racemic) [PCS, DL-α-Phosphatidylcholine, distearoyl] | 22 | 8 | 2 | 2 | 13 | 2 | 49
CCCCCCCCCCCCCCCC(=O)OCC(COP(=O)(O)OCCN)OC(=O)CCCCCCCCCCCCCCC (racemic) [PEP, DL-α-Phosphatidylethanolamine, dipalmitoyl] | 9 | 8 | 2 | 2 | 17 | 1 | 40 and 39
CCCCCCCCCCCCCCCC(=O)OCC(COP(=O)(O)OC[C@H](N)C(=O)O)OC(=O)CCCCCCCCCCCCCCC (mixture of isomers) [PSP, DL-α-Phosphatidyl-L-serine, dipalmitoyl] | 47 | 2 | 2 | 3 | 14 | 2 | 70
CCCCCCCCCCCCCCCCC(=O)OC[C@H](COP(=O)(O)O)OC(=O)CCCCCCCCCCCCCCCC [PAH, L-α-Phosphatidicacid, diheptadecanoyl] | 5 | 4 | 2 | 2 | 6 | 2 | 21
